The text below walks through data of ChEMBL document CHEMBL3507680, “University of Dundee, Gates Library screen for HepG2 cell viability”.

Each structure is given as a SMILES string.

The nature of the data set: Human HepG2 cell viability assay in 384 well format. The following applies: HepG2 cells, read-out: Inhibition. The class given is toxicity, cell-based. Also on record: dose 125 nL, time 70.5 hour; cytotoxicity at 70.5 h: concentration not given beside the values.
For the molecule `COCCNC(=O)[C@H]1CN(c2nnc(C)s2)C[C@H]2OCC[C@@H]12`, the cytotoxicity at 70.5 h was -17.6%.
Regarding `Cn1cnc2c1C(COCC1CCOCC1)CN(C(=O)c1ccoc1)C2` (centres undefined), the cytotoxicity at 70.5 h amounted to 11.3%.
In the case of `Cc1cccc(CN2C(=O)CC[C@@H]3[C@H]2CCN3CC2CCOCC2)n1` it was -18.9%; in that of `Cn1c2c(ccc1=O)CC(NS(C)(=O)=O)CC2` (centres undefined), 27.8%; in that of `CS(=O)(=O)NC1CCc2c(ccc(=O)n2CC2CC2)C1` (centres undefined), -15.1%.
The same measure for `CC(C)CC(=O)N1CCc2nc(N3CCOCC3)nc(NC(C)C)c2C1`: -15.8%.
In the case of `O=C(Cc1ccccn1)N1CCN(CC2CC2)c2ncccc2C1` it was -4.27%; in that of `O=C(c1ccoc1)N1CC[C@@H]2[C@H]1CCC(=O)N2c1ccccc1`, -7.05%; in that of `Cc1ccc(C(=O)N2CC[C@@H]3[C@H]2CCC(=O)N3c2ccccc2)o1`, -13.7%.
On to `Cn1nnc2c1CCN(Cc1ccccc1)C2COCC1CC1` (centres undefined), for which the cytotoxicity at 70.5 h was -3.64%.
Take `COCCO[C@H]1CCN(C(=O)C2CCOCC2)[C@H]1Cc1ccncc1`: the cytotoxicity at 70.5 h came out at 29.3%.
The same measure for `Cn1cccc1C(=O)N1CCC2(CC1)CN(c1cncnc1)C(=O)CO2`: 8.12%.
Turning to `O=C(c1ccco1)N1CC[C@H]2[C@H]1CCN2CC1CCOCC1`, the cytotoxicity at 70.5 h was 5.37%.
The same measure for `O=C(c1ccc[nH]1)N1CCn2cc(Cn3cncn3)nc2C1`: -9.02%.
With `C[C@@H]1CN(C(=O)NC2CC2)C[C@]12CCN(c1ccsc1)C2=O`, the cytotoxicity at 70.5 h is -3.3%.
On to `COCCO[C@H]1CCN(C(=O)c2ccc[nH]2)[C@H]1Cc1ccncc1`, for which the cytotoxicity at 70.5 h was -3.06%.
Regarding `COCC(=O)N1CC[C@H]2C[C@H](C)O[C@@H]2C1`, the cytotoxicity at 70.5 h is -7.04%.
As for `Cn1cccc1C(=O)N1CCc2ncnc(N3CCCC3)c2CC1`, the cytotoxicity at 70.5 h is -5.07%.
For `CN(C)C(=O)N1C[C@H]2CN(Cc3cccc(F)c3)C(=O)[C@H]2C1`, the cytotoxicity at 70.5 h is -9.2%.
For the molecule `COc1cc(N2CC[C@H](O)[C@@H]2Cc2cnn(C)c2)ncn1`, the cytotoxicity at 70.5 h is -13.3%.
In the case of `CCOCC1CN(C(=O)c2cscn2)Cc2nnn(CC3CC3)c21` (centres undefined) it was -6.01%.
On to `O=C(C1CCOC1)N1C[C@H]2CN(Cc3ccccn3)C[C@H]2C1` (some centres undefined), for which the cytotoxicity at 70.5 h is -18%.
In the case of `O=C(c1ncccn1)N1C[C@H]2CCC[C@@]2(COCC2CCOCC2)C1` it was -15.9%.
Turning to `COc1ccc(CN2CCC3(CC2)CCN(c2ncccn2)CC3)cc1`, the cytotoxicity at 70.5 h is -6.69%.
As to `CN1CCN(Cc2ccoc2)Cc2cccnc21`, the cytotoxicity at 70.5 h is -4.02%.
As to `COCC(=O)N1CC[C@@H](N2CCOCC2)[C@@H]1Cc1ccccc1`, the cytotoxicity at 70.5 h is 4.62%.
The same measure for `CCCN(CC)C(=O)c1cc2c(c3ccccc3n2C)n1C(=O)N(C)C`: 4.9%; for `CC(=O)N1CCC2(CCN(C(=O)c3ccc(Cl)c(C(F)(F)F)c3)CC2)C1`: 1.62%; for `O=C(CCc1ccncc1)N1CCc2c(ncnc2N2CCOCC2)C1`: 31.1%.
As to `Cc1cccc(CN2CCC(n3cc(CCO)nn3)CC2)c1C`, the cytotoxicity at 70.5 h came to 2.7%.
Regarding `Fc1ccccc1CC1CCN(Cc2cscn2)CC1`, the cytotoxicity at 70.5 h was -4.53%.
The same measure for `O=C(Cn1ncc(N2CCCC2)cc1=O)Nc1ccc2nccnc2c1`: -3.43%; for `O=C(CCC(F)(F)F)N1CCCC2(CCC(=O)N(CC3CC3)C2)C1` (centres undefined): -15.8%; for `Cc1cc(C)c(C(=O)NC2CCCc3nc(N(C)C)ncc32)cc1C` (centres undefined): 23.6%.
In the case of `COc1ccc(CCN)cc1-c1ccc(C(N)=O)cc1` it was -6.83%; in that of `CC(C)CN1CC(c2nc(C3CC3)n[nH]2)CC1=O` (centres undefined), -9.82%.
In the case of `COc1ccc2ncn(Cc3ncc[nH]3)c(=O)c2c1` it was 2.5%.
Turning to `CN(Cc1ccccn1)C(=O)c1cc(CN2CCC(O)CC2)on1`, the cytotoxicity at 70.5 h is -16.8%.
The same measure for `Cc1ccnc(CNC(=O)C2CC(=O)N(CCN(C)C)C2)c1` (centres undefined): -7.06%; for `CN1C[C@@H]2CC[C@H](C1)N(Cc1ccccc1OCCN1CCOCC1)C2`: 1.83%; for `CCc1ccccc1OC1CN(C(=O)c2cccs2)C1`: 7.24%.
In the case of `COc1ccc(OC2CCN(C(=O)c3ccc(C(C)=O)s3)CC2)cc1` it was -6.92%; in that of `CCC(=O)c1ccc(OCC(=O)N2CCNCC2C(=O)NC2CC2)cc1` (centres undefined), -9.05%; in that of `Cc1cccc(-c2nc(N)nc3c2CN(C(=O)c2cc(C)n[nH]2)C3C)c1` (centres undefined), -13.9%.
As to `O=C(c1ccccn1)N1C[C@@H]2CC[C@H](C1)N(C(=O)CCN1CCCC1)C2`, the cytotoxicity at 70.5 h turned out to be 38%.
In the case of `O=C(Cn1ccc2ncccc2c1=O)N1CCCCC1` it was 13.3%.
`CCOC(=O)N1CCN(C(=O)Cn2ccc3ncccc3c2=O)CC1`: the cytotoxicity at 70.5 h is -8.19%.
With `Cc1cc(N2CCCN(C(=O)Cc3cccnc3)CC2)ccn1`, the cytotoxicity at 70.5 h was -6.53%.
The same measure for `Cn1cnnc1SCC(=O)NC1CC(=O)N(CCc2cccc(Cl)c2)C1` (centres undefined): -7.55%.
In the case of `CC(C1CCN(Cc2ccc(N(C)C)nc2)CC1)N1CCOCC1` (centres undefined) it was 8.61%; in that of `CC(C)CCn1cc(C(C(=O)O)N2CCC(c3ccncc3)CC2)cn1` (centres undefined), 19.8%; in that of `CCCc1cc(C(=O)N2CCC3(CCCN(CCOC)C3=O)C2)cs1` (centres undefined), -7.15%.
In the case of `Cc1cc(NCCCC(F)(F)F)n2nc(C)cc2n1` it was -1.87%; in that of `O=C(CC(F)(F)F)N1C[C@H]2CC[C@@H]1CN(Cc1ccccc1)C2`, -3.61%.
Take `O=C1CCC2(CCN(CCSc3ccccc3)CC2)CN1CCCO`: the cytotoxicity at 70.5 h was -1.81%.
The same measure for `Cc1ccc(S(=O)(=O)N2CCC(Cn3cc(C(C)(C)N)nn3)CC2)s1`: -6.09%; for `CC(C)CN1CCn2nc(CNc3ncnc4[nH]cnc34)cc2C1`: 10.6%; for `Cc1cnc(N2CCC(c3ccccc3)CC2)nc1-c1ccnn1C`: -6.13%.
On to `CC(=O)Nc1ccc(C(=O)Nc2cnc3n2CCCC3)c(C)c1`, for which the cytotoxicity at 70.5 h is -1.77%.
For `O=C(c1cccc(F)c1)N1C[C@@H](CN2CCCCC2)[C@@H](CO)C1`, the cytotoxicity at 70.5 h was -7.48%.
On to `CC(C)[C@@H]1CN(Cc2cnc3c(S(C)(=O)=O)cnn3c2)C[C@H]1N(C)C`, for which the cytotoxicity at 70.5 h was -7.81%.
`CN(C)CCNc1cc(-c2ncccn2)c2cc[nH]c2n1`: the cytotoxicity at 70.5 h is -6.11%.
In the case of `Cc1nc(COC[C@@H]2CCC[C@@]23CNCCO3)cs1` it was 15.5%.
For `CN(C)C(=O)CN1CCCC2(CCN(c3ccsc3)C2=O)C1` (centres undefined), the cytotoxicity at 70.5 h is 23.7%.
The same measure for `COc1ccc(CN2CCCC3(CCN(c4ccsc4)C3=O)C2)cc1` (centres undefined): 2.29%; for `Cc1ncsc1CN1C[C@@H]2COC[C@]2(C(=O)NCC2CC2)C1`: -3.67%; for `OCCN1CCOC2(CCCN(c3cccc(F)c3)C2)C1` (centres undefined): -7.62%.
In the case of `O=C(NC1CCC1)[C@@H]1C[C@@H]2CCN(Cc3cccs3)C[C@@H]2O1` it was 7.52%; in that of `Cc1nc(COC[C@@H]2CC[C@H]3[C@H](CCN3c3ncccn3)O2)cs1`, -7.79%; in that of `O=S1(=O)c2ccccc2C2(CCN(Cc3ccccc3)C2)N1CC1CC1` (centres undefined), -5.62%.
Take `CC(=O)N1CCC2(CC1)COCCN2Cc1ccc(F)cc1`: the cytotoxicity at 70.5 h was -0.157%.
Turning to `O=C1[C@H]2CN(CC3CC3)C[C@H]2CN1c1ccsc1`, the cytotoxicity at 70.5 h is -3.2%.
With `Cn1cc(N2CCC3(CCN(Cc4nccs4)C3)C2=O)cn1` (centres undefined), the cytotoxicity at 70.5 h is -12.1%.
With `COc1ccc(CN2C[C@H]3CN(c4ccsc4)C(=O)[C@H]3C2)cc1`, the cytotoxicity at 70.5 h is -20.7%.
In the case of `O=C1CC2(CCN(Cc3ccccn3)C2)CN1c1cncnc1` (centres undefined) it was -16.1%.
In the case of `O=C(c1ccno1)N1CC[C@@H]2O[C@@H](COCCN3CCCC3)CC[C@@H]21` it was -17.9%; in that of `O=C(c1cscn1)N1CCC2(CCN(Cc3cccs3)CC2)C1`, -6.38%; in that of `c1nc2c(c(C3CC3)n1)CCN(CC1CCOC1)CC2` (centres undefined), -13.3%.
The same measure for `CNC(=O)[C@@]12CCO[C@@H]1CCN(S(=O)(=O)c1cccnc1)C2`: -13.7%; for `O=C(NCC1COCc2c(-c3cccnc3)nnn2C1)c1cccs1` (centres undefined): -15.7%; for `Cc1ccc(N2CC[C@H]3O[C@@H](C(=O)NCc4ccco4)CC[C@H]32)nn1`: -4.81%.
For `Cc1noc(C)c1CN1CC[C@H]2OCC[C@@]2(C(=O)N2CCCO2)C1`, the cytotoxicity at 70.5 h was -7.09%.
The same measure for `O=c1cccnn1CC1CN(Cc2ccsc2)Cc2nccn2C1` (centres undefined): 0.993%; for `O=C(Nc1ccccc1)N1CCn2nnc(COc3cccnc3)c2C1`: 1.76%; for `c1cncc(COC[C@H]2CC[C@H]3[C@H](CCN3Cc3cccs3)O2)c1`: 2.81%.
The same measure for `COc1ccc(CN2C[C@@H](N(C)Cc3ccco3)[C@H]3OCCC[C@H]32)cc1`: -8.22%; for `Cc1ccc(N2CCO[C@H]3CN(Cc4cnn(C)c4)C[C@H]32)nn1`: -19.2%; for `Cc1ccc(N2CCO[C@H]3CN(CC4CC4)C[C@H]32)nn1`: -13.4%.
The same measure for `CN(C)CC1CN(Cc2ccc3c(c2)OCO3)Cc2nccn2C1` (centres undefined): 27.2%; for `O=C(c1ccccn1)N1Cc2nccn2CC(CN2CCOCC2)C1` (centres undefined): -10.3%.
Take `CN(C)CC1CN(Cc2ccsc2)Cc2nccn2C1` (centres undefined): the cytotoxicity at 70.5 h was -0.272%.
With `Cc1ccc(CN2CCOC3(COCCN(CCN(C)C)C3)C2)o1` (centres undefined), the cytotoxicity at 70.5 h is -7.86%.
In the case of `CN(Cc1cccnc1)C1CC2(CCN(c3ccccn3)CC2)C1` it was -8.74%; in that of `c1ccc(CN2CC[C@]3(C[C@@H](Oc4ccccn4)CO3)C2)nc1`, 19.9%.
